“And” between values parts separate entries of the source, which are not always exact repeats. Equal values may be shown once.

Common to all, as to format: physicochemical
A short description of data set [1]: Heating experiments (105° C., XRPD). Conditions: about 1 hour.
The nature of data set [2]: Accelerated stability (40±2° C., RH 75±5%).
Data set [3] is described as follows: Influencing factor stability test, light (4500±500 Lux, 25° C.).
Data set [4] can be described thus: Influencing factor stability test, high humidity (25° C., RH92.5±5%).
Data set [5] is described as follows: Stability of crystal form I in solvent at high temperature (50° C., XRPD).
Data set [6] in a line: Influencing factor stability test, high temperature (60±2° C.).
Data set [7] can be described thus: Stability of crystal form I in solvent at room temperature (suspension equilibrium, XRPD).
A short description of data set [8]: Dynamic Vapor Sorption (DVS). Here is the method:
An Advantage 1.0 dynamic moisture adsorption instrument from SMS was used to detect, the temperature is 25° C., the relative humidity range is 0%-95%, humidity change step is relative humidity 5%, when the value of the mass change rate dm/dt is less than 0.002%, it is considered equilibrium of the balance, when the mass change rate is less than 0.01%/minute within 5 minutes, it is considered as standards of equilibrium in detection process, the maximum equilibrium time is 2 hours.

Data set [9] is described as follows: Hygroscopicity under condition of high humidity.
Data set [10] is described as follows: Competition experiments of crystal form I and crystal form IV in solvents at room temperature. The following applies: 7 days, each tested solvent.

On to `CC(C)(Cc1cc2c(-c3ccc(C#N)cc3)cncc2s1)C(=O)O` [crystal form I, 3-[4-(4-Cyanophenyl)thieno[2,3-c]pyridin-2-yl]-2,2-dimethylpropanoic acid], for which the “XRPD after heating compared to before heating” value in [1] is reported as “unchanged”. Further, the Assay in [2] (0 day) was 99.1%; in data set [2] (1 month), 99.2%; in data set [2] (2 months), 98.6%; in data set [2] (3 months) it was 98.5%; in [2] (6 months), 99.7%; in data set [3] (0 day) it was 99.1%. For the same molecule, the Assay in data set [3] (5 days) was 99.8%; in [3] (10 days), 100.3%; in data set [4] (0 day) it was 99.1%; in data set [4] (5 days), 100.1%; in [4] (10 days), 100.6%; in data set [6] (0 day), 99.1%. Moreover, the Assay in [6] (5 days) is recorded as 101.1%; in [6] (10 days), 100.0%. Besides, the Total impurities came to 0.05% in data set [2] (0 day); 0.05% in data set [2] (1 month); 0.03% in data set [2] (2 months); 0.03% in data set [2] (3 months); 0.05% in data set [2] (6 months); 0.05% in data set [3] (0 day). Moreover, the Total impurities is 0.07% in data set [3] (5 days); 0.12% in data set [3] (10 days); 0.05% in data set [4] (0 day); 0.07% in data set [4] (5 days); 0.07% in data set [4] (10 days); 0.05% in data set [6] (0 day). For the same molecule, the Total impurities in [6] (5 days) and in data set [6] (10 days) was 0.07% in each case. Moreover, the Water content in [2] (0 day) is recorded as 0.04%; in [2] (1 month), 0.06%; in data set [2] (2 months), 0.03%; in [2] (3 months), 0.04%; in [2] (6 months), 0.10%; in [3] (0 day) it was 0.05%. Moreover, the Water content in [3] (5 days) came to 0.04%; in data set [3] (10 days), 0.09%; in data set [4] (0 day) it was 0.05%; in data set [4] (5 days) it was 0.06%; in data set [4] (10 days) it was 0.09%; in data set [6] (0 day) it was 0.05%. The Water content in data set [6] (5 days) and in data set [6] (10 days) was 0.04% throughout. Moreover, the Polymorph result in data set [3] (0 day), in data set [3] (5 days), in [3] (10 days), in [4] (0 day), in [4] (5 days) and in data set [4] (10 days) was “Crystal form I” throughout. The Polymorph result in data set [6] (0 day), in data set [6] (5 days) and in data set [6] (10 days) was “Crystal form I” throughout. Further, the “crystal form after suspension equilibration (XRPD)” value was “unchanged” in [5] (30 days, methanol-water, ethanol-water, isopropanol-water, acetone-water 50:50) and “unchanged” in data set [5] (43 days, methanol, ethanol, isopropanol, acetone or ethyl acetate). Moreover, the “crystal form after suspension equilibrium (XRPD)” value is “unchanged” in [7] (7 days, single organic solvents (methanol, ethanol, isopropanol, acetone, ethyl acetate etc.)); “unchanged” in [7] (14 days, water and methanol-, ethanol-, isopropanol-, acetone-water mixtures). Moreover, the “hygroscopicity (in words)” value in data set [8] is recorded as “non-hygroscopic”. In addition, in data set [8] (relative humidity from 0 to 95%, 25° C.), the “mass increase compared with the initial mass (DVS)” value was 0.00944% and 0.01%.

With `CC(C)(Cc1cc2c(-c3ccc(C#N)cc3)cncc2s1)C(=O)O` [amorphous form, 3-[4-(4-Cyanophenyl)thieno[2,3-c]pyridin-2-yl]-2,2-dimethylpropanoic acid], in data set [9], the “hygroscopicity (in words)” value is “strong hygroscopicity”.

As to `CC(C)(Cc1cc2c(-c3ccc(C#N)cc3)cncc2s1)C(=O)O` [crystal form III, 3-[4-(4-Cyanophenyl)thieno[2,3-c]pyridin-2-yl]-2,2-dimethylpropanoic acid], in [1], the “XRPD after heating compared to before heating” value was “transform to the crystal form I”.

As to `CC(C)(Cc1cc2c(-c3ccc(C#N)cc3)cncc2s1)C(=O)O` [crystal form IV, 3-[4-(4-Cyanophenyl)thieno[2,3-c]pyridin-2-yl]-2,2-dimethylpropanoic acid], the “XRPD after heating compared to before heating” value in data set [1] is reported as “unchanged”. For the same molecule, the “solid form after competition between crystal form I and crystal form IV (XRPD)” value in [10] is reported as “transformed to the crystal form I”.

On to `CC(C)(Cc1cc2c(-c3ccc(C#N)cc3)cncc2s1)C(=O)O` [crystal form VI, 3-[4-(4-Cyanophenyl)thieno[2,3-c]pyridin-2-yl]-2,2-dimethylpropanoic acid], for which, in [1], the “XRPD after heating compared to before heating” value is “transform to the crystal form I”.

Source of the values: patent publication US20250059202A1, “CRYSTAL FORM OF FUSED RING DERIVATIVE, AND PREPARATION METHOD THEREFOR AND USE THEREOF” (SHANGHAI YINGLI PHARMACEUTICAL CO., LTD, priority 2022, published 2025).
